# Measurements reported in patent US12570662B2, “Substituted pyrrolo[1,2-b]pyridazines as bifunctional degraders of interleukin-1 receptor-associated kinases” (Nurix Therapeutics, Inc., priority 2021, dated 2026).
# Target: T1, IRAK4 (Homo sapiens, UniProt Q9NWZ3)
# T1 construct: C-terminal HiBiT-tagged Jurkat cells (polyclonal cell line or clone 8D5); endogenous in cells; host or cells: Jurkat cells (polyclonal cell line or clone 8D5), HiBiT-tagged
# T1 sequence (Q9NWZ3 1-460): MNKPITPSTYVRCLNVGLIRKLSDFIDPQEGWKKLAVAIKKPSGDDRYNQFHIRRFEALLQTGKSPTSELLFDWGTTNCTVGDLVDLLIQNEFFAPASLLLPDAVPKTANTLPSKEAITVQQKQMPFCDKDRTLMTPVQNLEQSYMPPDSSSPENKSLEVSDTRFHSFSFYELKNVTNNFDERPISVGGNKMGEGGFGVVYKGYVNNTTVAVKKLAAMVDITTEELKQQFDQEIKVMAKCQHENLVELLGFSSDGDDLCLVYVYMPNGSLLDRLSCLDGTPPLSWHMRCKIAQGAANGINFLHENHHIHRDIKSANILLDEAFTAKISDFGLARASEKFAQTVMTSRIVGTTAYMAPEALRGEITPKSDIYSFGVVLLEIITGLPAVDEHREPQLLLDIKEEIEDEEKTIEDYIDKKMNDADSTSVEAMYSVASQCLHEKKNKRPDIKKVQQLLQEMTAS
# Assay: IRAK4 Degradation HiBit Assay
# Format: cell-based
# Details: C-terminal HiBiT-tagged Jurkat cells, 4 hrs incubation; for DC50: % IRAK4 remaining, four-parameter fit (IC50 used as DC50); for Dmax: from fit of % IRAK4 remaining, read-out: Dmax
# In short: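 Jurkat cells carrying C-terminal HiBiT-tagged IRAK4 (polyclonal or clone 8D5) exposed to compound, 10 μM–0.1 nM final over 11 points, for 4 h at 32 °C. Remaining IRAK4 measured by lytic HiBiT/LgBiT luminescence relative to DMSO. DC50 and Dmax taken from four-parameter variable-slope fits.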
SMILES,DC50,Dmax
"N#Cc1cnn2c(-c3cc(NC4CC4)c(-c4nnc(N5CCN(CC6CCN(c7ccc(C8CCC(=O)NC8=O)cc7)CC6)CC5)s4)cn3)ccc2c1 (racemic) [Example 77, rac-7-[4-(cyclopropylamino)-5-(5-{4-[(1-{4-[(3R)-2,6-dioxopiperidin-3-yl]phenyl}piperidin-4-yl)methyl]piperazin-1-yl}-1,3,4-thiadiazol-2-yl)pyridin-2-yl]pyrrolo[1,2-b]pyridazine-3-carbonitrile]",53 nM,90%
"CNc1cc(-c2ccc3cc(C#N)cnn23)ncc1-c1nnc(N2CCN(CC3CCN(c4ccc(C5CCC(=O)NC5=O)cc4)CC3)CC2)s1 (racemic) [Example 79, rac-7-[5-(5-{4-[(1-{4-[(3R)-2,6-dioxopiperidin-3-yl]phenyl}piperidin-4-yl)methyl]piperazin-1-yl}-1,3,4-thiadiazol-2-yl)-4-(methylamino)pyridin-2-yl]pyrrolo[1,2-b]pyridazine-3-carbonitrile]",21 nM,115%
"CNc1cc(-c2ccc3cc(C#N)cnn23)ncc1-c1nnc(C2CCN(CC3CCN(c4ccc(C5CCC(=O)NC5=O)cn4)CC3)CC2)s1 (racemic) [Example 81, rac-7-[5-(5-{1-[(1-{5-[(3R)-2,6-dioxopiperidin-3-yl]pyridin-2-yl}piperidin-4-yl)methyl]piperidin-4-yl}-1,3,4-thiadiazol-2-yl)-4-(methylamino)pyridin-2-yl]pyrrolo[1,2-b]pyridazine-3-carbonitrile]",10 nM,116%
"CN(CC1CCN(c2ccc([C@@H]3CCC(=O)NC3=O)cn2)CC1)[C@H]1CC[C@H](c2nnc(-c3cnc(-c4ccc5cc(C#N)cnn45)cc3NC3CCOCC3)s2)CC1 (racemic) [Example 82, 7-{4-[(oxan-4-yl)amino]-5-{5-[(1r,4r)-4-{[(1-{5-[(3RS)-2,6-dioxopiperidin-3-yl]pyridin-2-yl}piperidin-4-yl)methyl](methyl)amino}cyclohexyl]-1,3,4-thiadiazol-2-yl}pyridin-2-yl}pyrrolo[1,2-b]pyridazine-3-carbonitrile]",8 nM,114%
"N#Cc1cnn2c(-c3cc(NC4CCOCC4)c(-c4nnc(N5CC6CCC(C5)N6CC5CCN(c6ccc([C@H]7CCC(=O)NC7=O)cc6)CC5)s4)cn3)ccc2c1 (racemic) [Example 85, rac-7-[5-(5-{8-[(1-{4-[(3R)-2,6-dioxopiperidin-3-yl]phenyl}piperidin-4-yl)methyl]-3,8-diazabicyclo[3.2.1]octan-3-yl}-1,3,4-thiadiazol-2-yl)-4-[(oxan-4-yl)amino]pyridin-2-yl]pyrrolo[1,2-b]pyridazine-3-carbonitrile]",25 nM,73%
"N#Cc1cnn2c(-c3cc(N[C@H]4CCOC4)c(-c4nnc(N5CC6CCC(C5)N6CC5CCN(c6ccc(C7CCC(=O)NC7=O)cn6)CC5)s4)cn3)ccc2c1 (mixture of isomers) [Example 87, 7-[5-(5-{8-[(1-{5-[(3RS)-2,6-dioxopiperidin-3-yl]pyridin-2-yl}piperidin-4-yl)methyl]-3,8-diazabicyclo[3.2.1]octan-3-yl}-1,3,4-thiadiazol-2-yl)-4-{[(3S)-oxolan-3-yl]amino}pyridin-2-yl]pyrrolo[1,2-b]pyridazine-3-carbonitrile]",47 nM,61%
"N#Cc1cnn2c(-c3cc(NC4CCOCC4)c(-c4nnc(N5CC6(CCN(CC7CCN(c8ccc(C9CCC(=O)NC9=O)cn8)CC7)CC6)C5)s4)cn3)ccc2c1 (racemic) [Example 88, rac-7-[5-(5-{7-[(1-{5-[(3R)-2,6-dioxopiperidin-3-yl]pyridin-2-yl}piperidin-4-yl)methyl]-2,7-diazaspiro[3.5]nonan-2-yl}-1,3,4-thiadiazol-2-yl)-4-[(oxan-4-yl)amino]pyridin-2-yl]pyrrolo[1,2-b]pyridazine-3-carbonitrile]",11 nM,115%
"CCNc1cc(-c2ccc3cc(C#N)cnn23)ncc1-c1nnc(N2CC3CCC(C2)N3CC2CCN(c3ccc([C@H]4CCC(=O)NC4=O)cn3)CC2)s1 (racemic) [Example 89, rac-7-[5-(5-{8-[(1-{5-[(3R)-2,6-dioxopiperidin-3-yl]pyridin-2-yl}piperidin-4-yl)methyl]-3,8-diazabicyclo[3.2.1]octan-3-yl}-1,3,4-thiadiazol-2-yl)-4-(ethylamino)pyridin-2-yl]pyrrolo[1,2-b]pyridazine-3-carbonitrile]",24 nM,112%
"N#Cc1cnn2c(-c3cc(NC4CCOCC4)c(-c4nnc(C56CCC(CN7CCc8cc(C9CCC(=O)NC9=O)ccc8C7)(CC5)CC6)s4)cn3)ccc2c1 (racemic) [Example 90, rac-7-(5-{5-[4-({6-[(3R)-2,6-dioxopiperidin-3-yl]-1,2,3,4-tetrahydroisoquinolin-2-yl}methyl)bicyclo[2.2.2]octan-1-yl]-1,3,4-thiadiazol-2-yl}-4-[(oxan-4-yl)amino]pyridin-2-yl)pyrrolo[1,2-b]pyridazine-3-carbonitrile]",64 nM,25%
"N#Cc1cnn2c(-c3cc(NC4CCOCC4)c(-c4nnc(N5CCN(CC6CCN(c7ccc(N8CCC(=O)NC8=O)cc7)C6)CC5)s4)cn3)ccc2c1 (racemic) [Example 91, rac-7-{5-[5-(4-{[(3R)-1-[4-(2,4-dioxo-1,3-diazinan-1-yl)phenyl]pyrrolidin-3-yl]methyl}piperazin-1-yl)-1,3,4-thiadiazol-2-yl]-4-[(oxan-4-yl)amino]pyridin-2-yl}pyrrolo[1,2-b]pyridazine-3-carbonitrile]",97 nM,32%
"N#Cc1cnn2c(-c3cc(N[C@H]4CCOC4)c(-c4nnc(N5CCN(CC6CCN(c7ccc(C8CCC(=O)NC8=O)cn7)CC6)CC5)s4)cn3)ccc2c1 (mixture of isomers) [Example 92, 7-[5-(5-{4-[(1-{5-[(3RS)-2,6-dioxopiperidin-3-yl]pyridin-2-yl}piperidin-4-yl)methyl]piperazin-1-yl}-1,3,4-thiadiazol-2-yl)-4-{[(3S)-oxolan-3-yl]amino}pyridin-2-yl]pyrrolo[1,2-b]pyridazine-3-carbonitrile]",24 nM,114%
"N#Cc1cnn2c(-c3cc(N[C@@H]4CCOC4)c(-c4nnc(N5CC6CCC(C5)N6CC5CCN(c6ccc(C7CCC(=O)NC7=O)cn6)CC5)s4)cn3)ccc2c1 (mixture of isomers) [Example 94, 7-[5-(5-{8-[(1-{5-[(3RS)-2,6-dioxopiperidin-3-yl]pyridin-2-yl}piperidin-4-yl)methyl]-3,8-diazabicyclo[3.2.1]octan-3-yl}-1,3,4-thiadiazol-2-yl)-4-{[(3R)-oxolan-3-yl]amino}pyridin-2-yl]pyrrolo[1,2-b]pyridazine-3-carbonitrile]",10 nM,114%
"N#Cc1cnn2c(-c3cc(NC4CC4)c(-c4nnc(N5CC6CCC(C5)N6CC5CCN(c6ccc([C@H]7CCC(=O)NC7=O)cn6)CC5)s4)cn3)ccc2c1 (racemic) [Example 95, rac-7-[4-(cyclopropylamino)-5-(5-{8-[(1-{5-[(3R)-2,6-dioxopiperidin-3-yl]pyridin-2-yl}piperidin-4-yl)methyl]-3,8-diazabicyclo[3.2.1]octan-3-yl}-1,3,4-thiadiazol-2-yl)pyridin-2-yl]pyrrolo[1,2-b]pyridazine-3-carbonitrile]",27 nM,108%
"N#Cc1cnn2c(-c3cc(NC4CCC4)c(-c4nnc(N5CC6CCC(C5)N6CC5CCN(c6ccc([C@H]7CCC(=O)NC7=O)cn6)CC5)s4)cn3)ccc2c1 (racemic) [Example 96, rac-7-[4-(cyclobutylamino)-5-(5-{8-[(1-{5-[(3R)-2,6-dioxopiperidin-3-yl]pyridin-2-yl}piperidin-4-yl)methyl]-3,8-diazabicyclo[3.2.1]octan-3-yl}-1,3,4-thiadiazol-2-yl)pyridin-2-yl]pyrrolo[1,2-b]pyridazine-3-carbonitrile]",83 nM,103%
"C[C@H](C#N)Nc1cc(-c2ccc3cc(C#N)cnn23)ncc1-c1nnc(N2CCN(CC3CCN(c4ccc(C5CCC(=O)NC5=O)cc4)CC3)CC2)s1 (mixture of isomers) [Example 97, 7-(4-{[(1R)-1-cyanoethyl]amino}-5-(5-{4-[(1-{4-[(3RS)-2,6-dioxopiperidin-3-yl]phenyl}piperidin-4-yl)methyl]piperazin-1-yl}-1,3,4-thiadiazol-2-yl)pyridin-2-yl)pyrrolo[1,2-b]pyridazine-3-carbonitrile]",18 nM,111%
"N#Cc1cnn2c(-c3cc(N[C@@H]4CCOC4)c(-c4nnc(N5CC6CCC(C5)N6CC5CCN(c6ccc(C7CCC(=O)NC7=O)cc6)CC5)s4)cn3)ccc2c1 (mixture of isomers) [Example 98, 7-[5-(5-{8-[(1-{4-[(3RS)-2,6-dioxopiperidin-3-yl]phenyl}piperidin-4-yl)methyl]-3,8-diazabicyclo[3.2.1]octan-3-yl}-1,3,4-thiadiazol-2-yl)-4-{[(3R)-oxolan-3-yl]amino}pyridin-2-yl]pyrrolo[1,2-b]pyridazine-3-carbonitrile]",16 nM,105%
